Tested on: Experimental Autoimmune Uveitis (EAV)
Conditions: 25 to 50 mg/kg/day i.m. on 7 consecutive days commencing 7 days after immunization with bovine S antigen; histopathology on day 14; compared with olive oil control groups

For (Nva)^2-Cyclosporine, the “number of animals evidencing EAV” value was “substantial reduction”.

Reference: patent publication EP0170623B1, “Novel pharmaceutical use of (NVA)2-cyclosporine” (SANDOZ AG, priority 1984, dated 1990)
